≈ marks a conversion by molar mass, not a printed value.
Legend:
Assay type in all cases: functional, cell-based
[1] = Cytotoxicity against vincristine-resistant human KB/VJ300 cells
KB [2] = assay: Reversal of multidrug resistance in vincristine-resistant human KB cells in presence of 0.1 uM vincristine
KB [3] = assay: Reversal of multidrug resistance in vincristine-resistant human KB cells in presence of 0.121 uM vincristine

SMILES	IC50 [1]	IC50 (KB [2])	IC50 (KB [3])
COC(=O)N1c2c(ccc(OC)c2O)[C@@]23CCN4C[C@@H]5O[C@@H]5[C@]5(CC[C@]12[C@](O)(C(=O)OC)[C@@H]5O)[C@H]43 [KOPSIMALINE C]	> 25 µg/mL	18.2 µg/mL	–
COC(=O)N1c2c(ccc3c2OCO3)[C@@]23CCN4C[C@@H]5O[C@@H]5[C@@]5([C@@H](O)[C@@](O)(C(=O)OC)[C@@]12C[C@@H]5O)[C@H]43 [KOPSIMALINE D]	25 µg/mL (≈ 49.8 µM)	9.2 µg/mL	–
COC(=O)N1c2c(OC)cccc2[C@@]23CCN4C[C@@H]5O[C@@H]5[C@]5(CC[C@]12[C@](O)(C(=O)OC)[C@@H]5O)[C@H]43 [KOPSIMALINE E]	> 25 µg/mL	18 µg/mL	–
CCOC(=O)[C@@H]1[C@@H](O)[C@@]23C=CCN4CC[C@@]5(c6ccccc6N[C@]15CC2)[C@@H]43 [KOPSILOSCINE J]	> 25 µg/mL	15 µg/mL	–
COC(=O)N1c2c(ccc3c2OCO3)[C@@]23CCN4C[C@@H]5O[C@@H]5[C@]5(CC[C@]12[C@](O)(C(=O)OC)[C@@H]5O)[C@H]43 [KOPSIMALINE A]	> 25 µg/mL	–	3.9 mM
COC(=O)N1c2c(O)cccc2[C@@]23CCN4C[C@@H]5O[C@@H]5[C@]5(CC[C@]12[C@](O)(C(=O)OC)[C@@H]5O)[C@H]43 [KOPSIMALINE B]	> 25 µg/mL	13 µg/mL	–

From ChEMBL document CHEMBL1142391, “Biologically active aspidofractinine alkaloids from Kopsia singapurensis” (J Nat Prod, 2008)
